A melting point of 168 to 170 °C was found for `NC1=NC(C23CC4CC(CC(C4)C2)C3)N(c2ccc(Cl)cc2)C(N)=N1` (stereo not shown) [Example free base, 4,6-Diamino-1,2-dihydro-1-(4-chlorophenyl)-2-(1-tricyclo[3.3.1.1^3,7]decyl)-1,3,5-triazine] in this work.

Reference: patent publication US20080045477A1, “Series Of New 4,6-Diamino-1,2-Dihydro-1-Aryl-1,3,5-Triazines, Substituted By An Adamantyl Moiety In The Position 2 Of Triazine-Their Corresponding Salts, Isomers,Steroisomers, Enantiomers, Free Bases And The Complexes Of All The Above With Natural Macromolecules And Their Synthetic Derivatives” (priority 2001, published 2008)
